Measured values from publication PMC12475274, “Harnessing indole scaffolds to identify small-molecule IRE1α inhibitors modulating XBP1 mRNA splicing” (Nature Communications, 2025).
pIC50: −log10 of the molar value. Values joined by “and” are separate entries in the source; they are usually repeats but may differ in a detail not shown here. Equal values may be shown once. Read-outs that look alike come from different tables or passages of the source.

Tests used:
[1] = molecular target: T1, dephosphorylated IRE1α (547–977) (Homo sapiens, UniProt O75460); assay: FRET-based IRE1α RNase activity assay, dephosphorylated IRE1α; type: biochemical; settings: for inhibition at 50 µM: read-out: IRE1α inhibition%
T1 construct: Human IRE1α kinase and RNase domain (residues 547–977) was subcloned into pLIB plasmid; His tag (with TEV cleavage site) (N, cleaved yes); made in house; host or cells: Sf9 insect cells, baculovirus (Bac-to-Bac)
Description: (§1) Human IRE1α kinase and RNase domain (residues 547–977) was subcloned into pLIB plasmid with a His tag and TEV cleavage site, and expressed using Bac-to-Bac expression system. The primers used are listed in Supplementary Table S3. The protein purification was performed following established procedures. Briefly, Sf9 cells were infected with baculovirus and incubated at 27 °C 110 rpm for 72 h. The cells were collected by centrifugation at 4000 × g for 15 min and the cell pellet was resuspended in lysis buffer (50 mM HEPES pH 7.5, 300 mM NaCl, 10% glycerol, 1 mM MgCl2, 1 mM TCEP, 5 mM imidazole), then supplemented with 1:10,000 benzonase (Sigma, E1014), 1 tablet/25 mL […]™ Protease Inhibitor Cocktail tablets (Sigma, S8830) and 1 mM PMSF before lysed by sonication at 4 °C. […] The protein elution was incubated with TEV protease to remove His tag at 4 °C overnight. Then the sample was diluted 1:6 in buffer (50 mM HEPES pH 7.5, 1 mM TCEP, 5% glycerol) and loaded onto a 5 mL pre-packaged Q HP anion exchange column (Cytiva, HiTrap Q HP) pre-equilibrated with QA buffer (50 mM HEPES pH 7.5, 50 mM NaCl, 1 mM TCEP, 5% glycerol). The unphosphorylated and phosphorylated protein was separated by eluting the protein with a very shallow gradient with 0-30% buffer QB (50 mM HEPES pH 7.5, 1 M NaCl, 1 mM TCEP, 5% glycerol) over 80 CV. Different peaks were collected separately and verified by LC-MS. The fully phosphorylated fraction was collected and further purified by size exclusion chromatography (Cytiva, HiLoad 16/600 Superdex 200 pg,) with SEC buffer (25 mM HEPES pH 7.5, 250 mM NaCl, 1 mM TCEP, 10% glycerol) and fractioned as monomeric peak. The rest protein fraction from the Q HP anion exchange column was incubated with Lambda protein phosphatase (New England BioLabs, P0753S) overnight at 4 °C, the dephosphorylation was confirmed by LC-MS. The unphosphorylated protein was further purified by size exclusion chromatography with the SEC buffer described above. The purified phosphorylated (p-IRE1α) and dephosphorylated (IRE1α) protein aliquots were stored at −80 °C for future usage.
The dual-labeled RNA substrate with a FAM at 5’ and the BHQ-1 at 3’ containing the XBP1 sequence (5′FAM-[…]-3′BHQ1) was purchased from Integrated DNA Technologies (IDT). The FRET-based IRE1α RNase activity assay was carried out in reaction buffer containing 20 mM HEPES pH 7.5, 50 mM KOAc, 1 mM MgOAc2, 1 mM DTT, 0.05% v/v TritonX-100, at a total reaction volume of 20 μL in a 384-well black plate (4514, Corning). For unphosphorylated IRE1α (IRE1α), a final concentration of 40 nM IRE1α protein and 100 nM RNA substrate was used. For phosphorylated IRE1 (p-IRE1α), a final concentration of 4 nM p-IRE1α protein and 200 nM RNA substrate was used. The indicated compound and IRE1α protein were incubated for 30 min at room temperature before the substrate was added to the reaction. The plate was then kinetically read over one hour at room temperature using a TECAN Spark plate reader. The measurement was carried out using the fluorescence top reading mode at the excitation wavelength of 485 nm and the emission wavelength of 535 nm with a 10 nm excitation and emission bandwidth. The linear part of the reaction curve was adopted and fitted with sample linear regression to obtain the slope, and the slope was adopted to reflect the reaction rate. The inhibition % was calculated by using the equation: inhibition% = 100 × (slope of DMSO control – slope of the sample)/(slope of DMSO control – slope of blank control), DMSO control: DMSO with protein and RNA substrate; Blank control: DMSO with RNA substrate. The IC50 values were calculated using the concentration-response model in GraphPad Prism 9. […]

[2] = molecular target: T2, phosphorylated IRE1α (p-IRE1α) (Homo sapiens, UniProt O75460); assay: FRET-based IRE1α RNase activity assay, phosphorylated IRE1α; type: biochemical; settings: for inhibition at 50 µM: FRET assay at 50 μM, read-out: p-IRE1α inhibition%
T2 construct: Human IRE1α kinase and RNase domain (residues 547–977) was subcloned into pLIB plasmid; His tag (with TEV cleavage site) (N, cleaved yes); made in house; host or cells: Sf9 insect cells, baculovirus (Bac-to-Bac)
Description: as §1
The dual-labeled RNA substrate with a FAM at 5’ and the BHQ-1 at 3’ containing the XBP1 sequence (5′FAM-[…]-3′BHQ1) was purchased from Integrated DNA Technologies (IDT). The FRET-based IRE1α RNase activity assay was carried out in reaction buffer containing 20 mM HEPES pH 7.5, 50 mM KOAc, 1 mM MgOAc2, 1 mM DTT, 0.05% v/v TritonX-100, at a total reaction volume of 20 μL in a 384-well black plate (4514, Corning). For unphosphorylated IRE1α (IRE1α), a final concentration of 40 nM IRE1α protein and 100 nM RNA substrate was used. For phosphorylated IRE1 (p-IRE1α), a final concentration of 4 nM p-IRE1α protein and 200 nM RNA substrate was used. The indicated compound and IRE1α protein were incubated for 30 min at room temperature before the substrate was added to the reaction. The plate was then kinetically read over one hour at room temperature using a TECAN Spark plate reader. The measurement was carried out using the fluorescence top reading mode at the excitation wavelength of 485 nm and the emission wavelength of 535 nm with a 10 nm excitation and emission bandwidth. The linear part of the reaction curve was adopted and fitted with sample linear regression to obtain the slope, and the slope was adopted to reflect the reaction rate. The inhibition % was calculated by using the equation: inhibition% = 100 × (slope of DMSO control – slope of the sample)/(slope of DMSO control – slope of blank control), DMSO control: DMSO with protein and RNA substrate; Blank control: DMSO with RNA substrate. The IC50 values were calculated using the concentration-response model in GraphPad Prism 9.

[3] = FRET assay at 50 μM, mean (± SEM)
[4] = FRET assay, RNase activity, mean (± SEM), read-out: IRE1α IC50
[5] = FRET assay, source data, unit from Fig. 3 / sheet Fig. 2b, read-out: IRE1a IC50, individual replicates (n1-n4)
[6] = FRET assay, RNase activity, mean (± SEM), read-out: p-IRE1α IC50
[7] = FRET assay, source data, unit from Fig. 3, read-out: p-IRE1a IC50, individual replicates (n1-n4)
[8] = FRET assay, RNase activity, mean (± SEM)

T2 sequence (O75460 547-977): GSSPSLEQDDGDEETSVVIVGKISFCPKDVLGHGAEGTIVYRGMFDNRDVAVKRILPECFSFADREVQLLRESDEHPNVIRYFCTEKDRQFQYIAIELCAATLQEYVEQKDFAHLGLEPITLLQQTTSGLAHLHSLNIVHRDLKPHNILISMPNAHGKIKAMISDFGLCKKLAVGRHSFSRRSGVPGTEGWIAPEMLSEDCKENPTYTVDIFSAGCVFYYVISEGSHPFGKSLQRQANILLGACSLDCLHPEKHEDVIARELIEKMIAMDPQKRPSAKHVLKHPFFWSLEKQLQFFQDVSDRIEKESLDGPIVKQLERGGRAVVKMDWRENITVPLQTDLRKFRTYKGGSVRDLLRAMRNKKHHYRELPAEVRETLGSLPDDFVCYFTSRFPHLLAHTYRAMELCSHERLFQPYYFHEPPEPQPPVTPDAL
T1 sequence (O75460 547-977): as above

inhibition at 50 µM [1, 3] [%] | inhibition at 50 µM ([2]; mean (± SEM)) [%] | pIC50 [1, 4] | pIC50 [1, 5] | pIC50 [2, 6] | pIC50 [2, 7] | SMILES | other results
< 30 | < 30 | – | – | – | – | COc1ccc2c(c1)c(CC(=O)OC(C)C)c(C)n2C(=O)c1ccc(Cl)cc1 [cms07] | –
– | – | 5.53 | 5.64 and 5.42 and 5.56 | 5.12 | 5.71 and 5.00 and 4.97 | Cc1c(CCC(=O)O)c2cc(-c3cccs3)ccc2n1C(=O)c1ccccc1 [IA140] | –
– | – | – | – | – | – | Cc1c(CCC(=O)O)c2cc(F)ccc2n1C(=O)c1cccs1 [IA48] | pIC50 ([1]; IRE1a, individual replicates (n1-n4), Supplementary Fig. 2b, 2c, read-out: IC50): 6.27 and 6.42 and 6.92; pIC50 ([1]; IRE1a, mean, Supplementary Fig. 2b, 2c, read-out: IC50, mean): 6.46; pIC50 ([2]; p-IRE1a, individual replicates (n1-n3), Supplementary Fig. 2b, 2c, read-out: IC50): 5.97 and 6.38 and 6.13; pIC50 ([2]; p-IRE1a, mean, Supplementary Fig. 2b, 2c, read-out: IC50, mean): 6.13
< 30 | < 30 | – | – | – | – | COC(=O)CCc1c(C)n(C(=O)c2ccc(Cl)cc2)c2ccc(OC)cc12 [cms04] | –
< 30 | < 30 | – | – | – | – | CCOC(=O)Cc1c(C)n(C(=O)c2ccc(Cl)cc2)c2ccc(OC)cc12 [cms05] | –
– | – | 5.67 | 5.54 and 5.75 and 5.74 | 4.94 | 4.91 and 4.81 and 5.16 | Cc1c(CCC(=O)O)c2cc(-c3ccncc3)ccc2n1C(=O)c1ccccc1 [IA153] | –
– | – | 6.38 | 6.74 and 6.17 and 6.38 | 6.14 | 6.60 and 5.95 and 6.10 | Cc1c(CCC(=O)O)c2cc(F)ccc2n1C(=O)c1ccccc1 [IA137] | –
< 30 | < 30 | – | – | – | – | COc1ccc2c(c1)c(C(C)=O)c(C)n2C(=O)c1ccc(Cl)cc1 [cms08] | –
– | – | < 4.70 | – | < 4.70 | – | COc1ccc2[nH]c(C)c(CCC(=O)O)c2c1 [IA72] | IRE1α IC50 [1, 8]: IC₅₀ not reached; p-IRE1α IC50 [2, 8]: IC₅₀ not reached
– | – | 6.47 | 6.76 and 6.77 and 6.17 | 5.98 | 6.35 and 6.20 and 5.68 | Cc1c(CCC(=O)O)c2ccccc2n1C(=O)c1ccccc1 [IA104] | –
– | – | 4.92 | 4.97 and 4.90 and 4.89 | 4.37 | 4.33 and 4.30 and 4.49 | Cc1c(CCC(=O)O)c2cc(-c3ccc(C(N)=O)cc3)ccc2n1C(=O)c1ccccc1 [IA152] | –
– | – | < 4.70 | – | < 4.70 | – | COc1ccc2c(c1)c(CCC(=O)O)c(C)n2C(=O)N(C)C [IA76] | IRE1α IC50 [1, 8]: IC₅₀ not reached; p-IRE1α IC50 [2, 8]: IC₅₀ not reached
< 30 | < 30 | – | – | – | – | COC(=O)CCCc1c(C)n(C(=O)c2ccc(Cl)cc2)c2ccc(OC)cc12 [cms06] | –
– | – | – | – | – | – | O=C(O)Cc1c[nH]c2ccccc12 [auxin, reference compound] | IRE1α inhibition% [1, 3]: ≤ 50%
